“Also recorded” adds a separate entry of the source. Read-outs that look alike come from different tables or passages of the source. Ends that are not written are not given here.
How the values were obtained:
[1] = intracerebroventricular (icv); cited from earlier work
[2] = tested on: adenylate cyclase; test: Stimulation of adenylate cyclase activity by oCRF (rat frontal cortex); assay type: biochemical; conditions: 10^-6 M oCRF, 37° C., 10 minutes
Method: Male Sprague-Dawley rats (175-250 g) were sacrificed by decapitation, the frontal cortex was dissected and homogenized in 30 volumes (w/v) of ice-cold buffer (50 mM Tris HCl, 10 mM MgCl2, 2 mM EGTA; pH 7.2 at 22° C.). The homogenate was centrifuged at 40,000×g for 3 minutes (4° C.), the supernatant discarded and the pellet resuspended in original volume of fresh homogenization buffer. Following centrifugation at 40,000×g for 30 minutes, the resulting pellet was suspended to a tissue concentration of 20 mg original wet weight of tissue per mL (approximately 40-60 μg protein/mL). For determination of basal adenylate cyclase activity, assays are carried out at 37° C. for 10 minutes in 250 μL of buffer containing 100 mM Tris HCl, 10 mM MgCl2, 0.4 mM EGTA, 0.1% BSA, 1 mM isobutylmethylxanthine (IBMX), 3 units/tube phosphocreatine kinase, 5 mM creatine phosphate, 100 μM guanosine. Maximal stimulation of adenylate cyclase activity was accomplished by the addition of 10^-6 M oCRF. Stimulated enzyme activity generally represented a 75-95% increase over basal levels. […] Individual data points were expressed as pmoles of cAMP formed/10 minutes/mg protein. Protein content of tissue samples was measured using the BioRad method with bovine serum albumin serving as the standard.

[3] = target: T1, CRF receptor (Rattus norvegicus, UniProt P35353); test: In vitro receptor binding: inhibition of specific binding of [125I]tyrosine-oCRF to rat cerebral cortex membranes; conditions: [125I]Tyr-oCRF 50-100 pM, 2 hours at room temperature, read-out: Inhibition of CRF Binding, Rat Cerebral Cortex Membrane, IC50
T1 construct: the cerebral cortex was removed and the tissue homogenized; from tissue; host or cells: cerebral cortex membranes of male Sprague-Dawley rats
T1 sequence (P35353 24-415): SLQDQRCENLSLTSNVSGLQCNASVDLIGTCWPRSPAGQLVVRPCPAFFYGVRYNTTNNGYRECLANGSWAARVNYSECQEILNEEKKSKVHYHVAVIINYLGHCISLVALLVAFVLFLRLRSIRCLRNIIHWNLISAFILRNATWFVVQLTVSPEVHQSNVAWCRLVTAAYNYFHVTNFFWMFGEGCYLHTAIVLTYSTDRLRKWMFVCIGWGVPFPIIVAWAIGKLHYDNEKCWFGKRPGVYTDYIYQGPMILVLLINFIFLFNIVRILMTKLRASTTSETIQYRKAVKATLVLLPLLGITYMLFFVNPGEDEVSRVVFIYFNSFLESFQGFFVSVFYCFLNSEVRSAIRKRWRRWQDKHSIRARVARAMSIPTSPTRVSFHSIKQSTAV
Method: The potency of the compounds of the invention as inhibitors of the specific binding of radiolabeled CRF to rat cerebral cortex membranes was examined using a standard in vitro radioligand binding technique. […] The homogenate was centrifuged at 48,000×g for 10 minutes at 4° C. The supernatant was removed, the tissue pellet suspended in the original volume of fresh homogenization buffer using a Polytron and centrifuged as before. […] Incubation buffer consists of 50 mM Hepes (pH 7.0 at 22° C.) containing 10 mM MgCl2, 2 mM EGTA, 0.1 mM bacitracin, 100 KIU (kallikrein inhibitor units)/mL aprotinin and 0.1% BSA (bovine serum albumin). […] Nonspecific binding was determined in the presence of 1 μM oCRF. The binding reaction was allowed to proceed for 2 hours at room temperature. Bound radioligand was separated from the incubation medium by centrifugation in a Beckman microfuge for 5 minutes at 12,000×g. The supernatant was aspirated and the resulting pellet was washed with 1 mL of cold phosphate buffered saline (pH 7.2) containing 0.01% of Triton X-100.
Tyr-oCRF to rat cortical membranes was determined on at least three separate occasions using 8-10 concentrations of each compound and utilizing triplicate incubations. The IC50 and apparent Hill coefficient for each compound were calculated using a computer-assisted log-logit analysis.

[4] = target: CRF-stimulated adenylate cyclase; test: Inhibition of CRF-stimulated adenylate cyclase activity (rat frontal cortex); assay type: biochemical; conditions: 1 μM oCRF, 37° C., 10 minutes
Text: CRF antagonist activity is established by the ability of the compounds to antagonize CRF-stimulated adenylate cyclase activity, it having been established that CRF receptors are coupled to a guanine nucleotide regulatory protein that activates adenylate cyclase [G. Aguilera et al., Neuroendocrinology, 43, 79 (1986); G. Battaglia et al., Synapse, 1, 572 (1987)].
Male Sprague-Dawley rats (175-250 g) were sacrificed by decapitation, the frontal cortex was dissected and homogenized in 30 volumes (w/v) of ice-cold buffer (50 mM Tris HCl, 10 mM MgCl2, 2 mM EGTA; pH 7.2 at 22° C.). The homogenate was centrifuged at 40,000×g for 3 minutes (4° C.), the supernatant discarded and the pellet resuspended in original volume of fresh homogenization buffer. Following centrifugation at 40,000×g for 30 minutes, the resulting pellet was suspended to a tissue concentration of 20 mg original wet weight of tissue per mL (approximately 40-60 μg protein/mL). For determination of basal adenylate cyclase activity, assays are carried out at 37° C. for 10 minutes in 250 μL of buffer containing 100 mM Tris HCl, 10 mM MgCl2, 0.4 mM EGTA, 0.1% BSA, 1 mM isobutylmethylxanthine (IBMX), 3 units/tube phosphocreatine kinase, 5 mM creatine phosphate, 100 μM guanosine. Maximal stimulation of adenylate cyclase activity was accomplished by the addition of 10^-6 M oCRF. Stimulated enzyme activity generally represented a 75-95% increase over basal levels. Reactions were initiated by the addition of tissue and terminated by the addition of 150 μL of 50 mM Tris HCl, 45 mM ATP, 2% sodium dodecyl sulfate (SDS), and [^3 H] cAMP (approximately 40,000 dpm). The [^3 H]cAMP was added to each assay tube to monitor recovery of cAMP during subsequent chromatography steps. Separation of [^32 P]cAMP from [^32 P]ATP was accomplished by sequential elution over Dowex and alumina columns. The eluate (4 mL) was collected in 20 mL scintillation vials to which 8 mL of Beckman EP fluor was added. Vials were shaken for 30 minutes prior to measuring ^3 H and ^32 P by scintillation counting. All data were fed directly from the liquid scintillation counter via RS232 port to a VAX 8300 computer. Individual data points were expressed as pmoles of cAMP formed/10 minutes/mg protein. Protein content of tissue samples was measured using the BioRad method with bovine serum albumin serving as the standard.
Determination of antagonist activity was accomplished by addition of at least six concentrations of the compound (10^-8 -10^-4 M), evaluated in triplicate, in the presence of a maximally stimulating concentration of oCRF (1 μM). IC50 values were derived from a log-logit transformation of the data on a Vax 8300.

[5] = Table II, Formula II (disulfides)

Molecule	IC50 ([3]; Table I, Formula I) [µM]	IC50 ([4]; Table I, Formula I) [µM]	other results
CRF: corticotropin releasing factor (SEEPPISLDLTFHLLREVLEMARAEQLAQQAHSNRKLMEII; ends and bridges not checked; UniProt P06850 154-194, looked up)			effect of icv injection of CRF (in words) [1]: elicits behavioral activation; also recorded: produces a long-lasting activation of the electroencephalogram; also recorded: stimulates the sympathoadrenomedullary pathway; also recorded: increases heart rate and blood pressure; also recorded: increases oxygen consumption; also recorded: alters gastrointestinal activity; also recorded: suppresses food consumption; also recorded: compromises immune function
oCRF: ovine CRF, a 41 residue straight chain peptide			Stimulated enzyme activity, increase over basal levels [2]: 75-95%
CCn1c(C)c(SSc2c(C)n(CC)n(-c3ccc(Cl)c(Cl)c3)c2=O)c(=O)n1-c1ccc(Cl)c(Cl)c1 [Formula II: 3,4-Cl2 Ph, C2 H5, CH3, 2-ethyl-3-methyl-5-oxo-1-(3,4-dichlorophenyl)-3-pyrazolin-4-yl disulfide]			IC50 [3, 5]: 2.9 µM; IC50 [4, 5]: 4.3 µM
CCn1c(C)c(SC#N)c(=O)n1-c1ccccc1 [Formula I: Ph, C2 H5, CH3, SCN, 2-ethyl-3-methyl-5-oxo-1-phenyl-3-pyrazolin-4-yl thiocyanate]	12.2	6.5	
CCn1c(C)c(SC#N)c(=O)n1-c1ccc([N+](=O)[O-])cc1 [Formula I: 4-NO2 Ph, C2 H5, CH3, SCN, 2-ethyl-3-methyl-5-oxo-1-(4-nitrophenyl)-3-pyrazolin-4-yl thiocyanate]	5.7	2	
CCc1c(SC#N)c(=O)n(-c2ccc(OC)cc2)n1C [Formula I: 4-OMePh, CH3, C2 H5, SCN]	9.3	11.9	
